Measured values as given in patent US12440531B2, “Composition for use in improving endothelial function by enhancing flow mediated dilation” (SOCIETE DES PRODUITS NESTLE S.A., priority 2019, dated 2025).

Columns and labels:
L. johnsonii esterase = assay: Substrate specificity with 4-nitrophenyl derivatives; type: biochemical, Lactobacillus johnsonii; details: substrate 0.2 mM, sodium phosphate buffer pH 6.0, 37° C., 10 min, absorbance 410 nm
Protocol: The substrate specificity of L. johnsonii esterase was studied using different 4-nitrophenyl derivatives. […] The reactions were carried out in sodium phosphate buffer pH 6.0 at 37° C. for 10 min. The substrates were used at concentration of 0.2 mM and enzyme at 0.01 U/mg substrate. The measures were monitored each 30 seconds. The absorbance was set at 410 nm.

human vascular function = details: pure 5-CQA at 450 mg and 900 mg, 24 subjects; cited from earlier work

SMILES	transformation as substrate of L. johnsonii esterase (L. johnsonii esterase)	effect on human vascular function (human vascular function)
CCCC(=O)Oc1ccc([N+](=O)[O-])cc1 [4-nitrophenyl butyrate]	best substrate	–
O=C(/C=C/c1ccc(O)c(O)c1)O[C@@H]1C[C@](O)(C(=O)O)C[C@@H](O)[C@H]1O [Dose 5-CQA, 5-CQA]	–	did not show a significant effect
CCCCCCCCCCCC(=O)Oc1ccc([N+](=O)[O-])cc1 [4-nitrophenyl dodecanoate]	no transformation	–
